Source: patent publication US20220401459A1, “NEW APPLICATION OF CHEMOKINE RECEPTOR CCR6 INHIBITOR IN PREVENTING RECURRENCE OF PSORIASIS” (RUIJIN HOSPITAL, SHANGHAI JIAOTONG UNIVERSITY SCHOOL OF …, priority 2019, published 2022)
Entries after “also recorded” stand apart in the source; their conditions may differ.

Experiments:
[1] = system: imiquimod (IMQ)-induced mouse psoriasis model; assay: Imiquimod (IMQ)-induced mouse psoriasis model: GC treatment, withdrawal, re-induced recurrence; type: in vivo; conditions: for proportion of γδT17 (IL-17-secreting) cells in lymph nodes: after drug administration was stopped (2 weeks); for recurrence of psoriasis: psoriasis re-induced with IMQ after withdrawal
Description: (§1) In this example, an animal model to simulate clinical GC treatment for psoriasis was established (FIG. 2a). An imiquimod (IMQ)-induced mouse psoriasis model was utilized to simulate the whole clinical process of topical glucocorticoid treatment in patients with psoriasis: administering of drug—stop administering—recurrence of disease.
(§2) All mice were smeared with IMQ for three weeks. Among them, from the 6th day, GC or petrolatum (Vas) was applied to the skin of the mice, and all treatments were stopped on the 21st day. Mice entered a 2-week drug withdrawal period, after which IMQ was applied again for 7 consecutive days to induce psoriasis recurrence.
In order to simulate the clinical withdrawal period, all mice in the experimental group and the control group were rested for 2 weeks without treatment.
In this example, IMQ was applied to the mice in the experimental group and the control group again to simulate the recurrence of psoriasis after clinical withdrawal.

[2] = system: patients with psoriasis vulgaris; assay: Psoriasis vulgaris patients, topical GC for 2 weeks, then stopped until relapse (flow cytometry, RNA-seq); type: in vivo, human
Method: In this example, patients with psoriasis vulgaris were recruited and glucocorticoids (GC) were topically (externally) administered for 2 weeks of treatment. Thereafter, the administration were stopped until the disease relapsed, and further research on the mechanism of psoriasis recurrence was carried out.
Transcriptome sequencing (RNA-seq) was performed on the skin lesions of these patients before GC treatment, after GC treatment, and after disease recurrence.
In this example, in psoriasis patients receiving GC treatment, the changes in the proportion of CD3+ T cells and T17 cells in the skin and peripheral blood before treatment, after treatment and during recurrence were detected.

[3] = system: wild-type mice (WT), CCR6−/−, and CCR2−/− mice; assay: GC treatment and IMQ re-challenge in WT, CCR6−/− and CCR2−/− mice; type: in vivo, mouse
Description: as §1, §2
Cytokine receptors CCR6 and CCR2 are known to mediate the migration of γδT17 cells in the occurrence of skin inflammation. In this example, the above-mentioned mechanism was studied in wild-type mice (WT), CCR6^−/−, and CCR2^−/− mice.

[4] = system: imiquimod (IMQ)-induced mouse psoriasis model; assay: Imiquimod (IMQ)-induced mouse psoriasis model: GC treatment, withdrawal, re-induced recurrence; type: in vivo; conditions: imiquimod replaced by mannan for inducing recurrence
[5] = 2 weeks after withdrawal, vs control group
[6] = TCRd−/− mice, IMQ re-challenge, GC vs Vas
[7] = after treatment and during recurrence
[8] = before, after treatment and during recurrence
[9] = CCR6−/− mice, after GC treatment
[10] = CCR6−/− mice, re-challenge with IMQ

## CCCCCCCCc1ccc(CCC(N)(CO)CO)cc1 [FTY720]
[1]; GC group, recurrence
  migration of γδT17 cells from the draining lymph nodes: prevented
[1]; mice in the GC group given FTY720
  rapid recurrence of psoriasis: did not appear rapid recurrence

## C[C@@H]1C[C@H]2[C@@H]3C[C@H](F)C4=CC(=O)C(Cl)=C[C@]4(C)[C@@]3(F)[C@@H](O)C[C@]2(C)[C@@]1(O)C(=O)CO [halometasone]
[1]; 2 weeks after withdrawal
  proportions of γδT, Vγ4, Vγ4Vδ4 cells in draining and distant lymph nodes: remained unchanged or slightly increased
[1]; 2 weeks after withdrawal, vs Vas control group
  neutrophils infiltrated in the skin: more neutrophils were infiltrated
[1]; [5]
  proportion of γδT17 in the skin: also lower
  proportions of CD3, γδT, Vγ4Vδ4 in the skin: still lower
[1]; IMQ re-challenge, GC vs Vas
  levels of IL-17 secreted by CD3 and γδT cells in the skin: not significantly different
  proportions of CD3 and γδT cells in the skin: not significantly different
  proportions of IL-17 secreted by γδT, Vγ4, Vγ4Vδ4 cells in distant lymph nodes: significantly lower
  proportions of Vγ4T17 and Vγ4Vδ4T17 cells in the skin: slightly decreased
  γδT17 in skin draining lymph nodes: no difference
[1]; IMQ re-challenge, vs Vas control group
  infiltrated neutrophils in the skin: exceeded
[1]; IMQ re-challenge, vs Vas group
  epidermal thickening fold: also higher
[1]; TCRd−/− mice, 2 weeks after withdrawal, GC vs Vas
  neutrophils infiltrated in the skin: no difference
[1]; [6]
  ear / epidermal thickening: no difference
  infiltrated neutrophils in the skin: opposite results
[1]; TCRd−/− mice, after treatment, experimental vs control group
  neutrophil infiltration in the skin: no statistical difference
[1]; after drug administration was stopped
  proportion of γδT17 cells in lymph nodes after stimulation: still significantly increased
[1]
  proportion of γδT17 (IL-17-secreting) cells in lymph nodes: still significantly increased
  recurrence of psoriasis: relapsed rapidly
[1]; listed as GC
  proportion of γδT17 (IL-17-secreting) cells in lymph nodes: significantly increased
  recurrence of psoriasis: more severe disease recurrence
[1]; after treatment
  IL-17 secretion by Vγ4 cells and Vγ4Vδ4 cells in draining lymph nodes: secreted more IL-17
  dermal γδT cells, especially Vγ4Vδ4 cells, in the skin: significantly reduced
  proportion of CD3+ T cells in the skin: significantly reduced
  proportion of IL-17 secretion of γδT, Vγ4, Vγ4Vδ4 cells in distal lymph nodes: also higher
  proportion of Vγ4 cells in skin-draining lymph nodes: increased
  proportion of γδT17 cells in draining and distal lymph nodes: significantly increased
  proportion of γδT cells in skin-draining lymph nodes: decreased
  proportions of IL1R expression in γδT, Vγ4, Vγ4Vδ4 cells in the skin: all increased
  proportions of γδT, Vγ4, Vγ4Vδ4 T cells in distal lymph nodes: higher
[1]; after treatment, immunofluorescence and flow staining
  neutrophil infiltration in the skin: reduced
[1]; after treatment, listed as GC
  proportion of IL-17 secretion of γδT, Vγ4, Vγ4Vδ4 cells in distal lymph nodes: all increased
  proportion of γδT17 cells in draining and distal lymph nodes: increased in draining and distant lymph nodes
  proportions of CD3, γδ, Vγ4, Vγ4Vδ4 that secreted IL-17 (γδT17) in the skin: reduced; also recorded: decreased in the skin
  proportions of γδT, Vγ4, Vγ4Vδ4 T cells in distal lymph nodes: all increased
[1]; after using IMQ again for 3 days, vs control group
  ear thickening speed: faster
[1]; day 21, vs control group (Vas)
  ear thickness: significantly thinner
[1]; psoriasis re-induced with IMQ
  proportion of γδT17 cells in draining and distal lymph nodes: significant decrease
[1]; psoriasis re-induced with IMQ, GC group vs Vas
  proportion of Vγ4 and Vγ4Vδ4 T cells in the skin: higher
[1]; psoriasis re-induced with IMQ, GC group vs Vas, listed as GC
  proportions of γδT, Vγ4, Vγ4Vδ4 cells in lymph nodes: varied slightly or did not change; also recorded: mild or no change
[1]; psoriasis re-induced with IMQ, listed as GC
  proportion of γδT17 cells in draining and distal lymph nodes: indistinguishable or even lower
[1]; topical treatment of ear skin inflammation
  symptoms of skin psoriasis: significantly relieved
[2]; [7]
  expression of chemokines CCL20, CCL5, CCL2, CXCL10 in skin lesions (RNA-seq): decreased after treatment and increased during recurrence
  expression of psoriasis-related genes (IL-17, IL-23) in skin lesions: decreased after treatment, but increased during recurrence
[2]; after treatment and during recurrence, listed as GC
  expression of psoriasis-related genes (IL-17, IL-23) in skin lesions: down-regulated
[2]; [8]
  proportion of IL-17-producing T cells (T17 cells) in skin lesions: decreased after treatment and increased during recurrence
  proportion of IL-17-producing cells (T17 cells) in peripheral blood: increased after treatment and decreased during recurrence
[2]; before, after treatment and during recurrence, listed as GC
  proportion of IL-17-producing T cells (T17 cells) in skin lesions: decreased
[2]; topical treatment
  control of psoriasis: quickly and effectively control psoriasis
[3]; CCR6 KO mice, recurrence after GC treatment
  proportion of γδT17 cells in lymph nodes: did not show a decrease
[3]; CCR6 knockout mice
  redistribution of γδT17 cells in vivo: did not affect
[3]; [9]
  ear thickness vs corresponding control: no significant difference
  increased levels of IL-17 secreted by γδT, Vγ4, Vγ4Vδ4 cells in draining and distant sites: not observed
[3]; CCR6−/− mice, after treatment
  proportion of γδT cells in lymph nodes: did not show an increase
[3]; [10]
  disease recurrence: significantly suppressed
  levels of IL-17 secreted by dermal γδT, Vγ4, Vγ4Vδ4 cells vs corresponding control group: significantly lower
  proportions of γδT17, Vγ4T17, Vγ4Vδ4T17 cells in draining and distant lymph nodes (decrease): not
[3]; WT and CCR2 mice, re-challenge with IMQ
  disease recurrence: faster disease recurrence
[3]; WT and CCR2−/− mice, after GC treatment
  ear thickness vs corresponding controls: significantly lower
[3]; WT and CCR2−/− mice, re-challenge with IMQ
  levels of IL-17 secreted by CD3, γδT, Vγ4, Vγ4Vδ4 cells in the skin vs corresponding control group: no significant difference
[3]; WT mice, re-challenge with IMQ
  proportions of γδT17, Vγ4T17, Vγ4Vδ4T17 cells in draining and distant lymph nodes: decreased
[3]; WT, CCR6−/− and CCR2−/− mice (three strains), after GC treatment
  ear thickness: reduced
[3]; three strains of mice, after GC treatment
  levels of IL-17 secreted by CD3, γδT, Vγ4, Vγ4Vδ4 cells in the skin: all reduced
[4]
  rapid disease recurrence: no longer had rapid disease recurrence
